According to US20120178177A1, “Biological Components Within the Cerebrospinal Fluid” (priority 2009, published 2012):

What was measured:
SH-SY5Y cells [1] = experiment: Quantification of Annexin V-positive MPs released by differentiated SH-SY5Y cells (flow cytometry); assay type: cell-based, human; conditions: 24 hours treatment, Staurosporine 100 and 500 nM vs vehicle DMSO 0.1%, FIG. 5A
Description: (§1) The SH-SY5Y cells were maintained and differentiated in cell culture conditions as described under the Materials & Methods section of Example 2. Cells were then treated for 24 hours with Staurosporine at two different concentrations or with vehicle only. At the end of the treatment, culture medium was collected and MPs were isolated and subsequently quantified by flow cytometry. Those results are representative of several independent experiments. The resulting MPs populations have been isolated and characterized by flow cytometry (A) or by two-dimensional gel electrophoresis (B) as described in the Materials and Methods section. The three gels have been compared in an area comprised between approximately 10-60 kDa and pl 3.0 to 7.0. The boxes (named C, 1, and 2) define specific areas of interest in the captured images.
The human neuronal cell line SH-SY5Y (ATCC CRL-2266) was cultured in MEM/Ham's F12 medium (1:1) supplemented with 10% foetal bovine serum. Cells were seeded at 55,000 cells/cm^2. Cell differentiation was induced by adding 9-cis retinoic acid (5 μM) for 5 days directly to complete culture medium. After 5 days, medium was replaced with complete medium supplemented with BDNF (50 ng/ml) for additional 5 days. […]
MPs quantifications were performed by flow cytometry using fluorescein-labelled, His-tagged Annexin V, as indicated in Example 1 for CS-MPs and Plasma MPs.

SH-SY5Y cells [2] = experiment: Two-dimensional gel electrophoresis of MPs from SH-SY5Y cells; assay type: cell-based, human; conditions: MPs from SH-SY5Y cells treated with Staurosporine 100 and 500 nM vs vehicle; FIG. 5B
Description: as §1
The human neuronal cell line SH-SY5Y (ATCC CRL-2266) was cultured in MEM/Ham's F12 medium (1:1) supplemented with 10% foetal bovine serum. Cells were seeded at 55,000 cells/cm^2. Cell differentiation was induced by adding 9-cis retinoic acid (5 μM) for 5 days directly to complete culture medium. […]
MPs populations were obtained from Staurosporine-induced SH-SY5Y cells as indicated above. […] Non-protein impurities were removed using the ReadyPrep 2D Cleanup kit prior to isoelectrofocalisation (IEF) steps. […]

IL1beta = experiment: Gene expression of inflammatory markers in rat brain after intracerebroventricular injection (RT-QPCR); assay type: in vivo; conditions: LPS 50 μg/animal intracerebroventricular; rat brain (cortex, striatum, hippocampus); relative to 36B4 mRNA
Description: (§2) This experiment was elaborated on the basis of protocols described in previous publications (Sanna P et al., 1995). Briefly, male SD rats (225-250 g, CERJ, France) were anesthetized with pentobarbital (55 mg/kg) and positioned in a stereotaxic frame. Then, they received an intracerebroventricular injection of LPS (50 μg/animal in 3.3 μl of saline buffer) or saline (NaCl 0.9%) using a Kopf apparatus. The coordinates for the sterotaxic injections were −2.3 mm dorsal/ventral, −1.4 mm lateral, and −0.6 mm anterior/posterior from the bregma.
(§3) Total RNA was extracted using Qiagen RNA extraction kits following manufacturer's instructions. Total RNA was treated with DNase I (Ambion Inc., Austin, Tex., USA) at 37° C. for 30 minutes, followed by inactivation at 75° C. for 5 minutes. Real time quantitative PCR (RT-QPCR) assays were performed using an Applied Biosystems 7900 sequence detector. Total RNA (1 μg) was reverse transcribed with random hexamers using Taqman reverse-transcription reagents kit (Applied Biosystems) following the manufacturer's protocol. Gene expression levels were determined by Sybr green assays. 36B4 transcript was used as an internal control to normalize the variations for RNA amounts. Gene expression levels are expressed relative to 36B4 mRNA levels.
(§4) The specific primers used for the quantification were: […]

TNFalpha = experiment: as above; assay type: in vivo; conditions: LPS 50 μg/animal intracerebroventricular; rat brain (cortex, striatum, hippocampus); relative to 36B4 mRNA
Description: as §2, §3, §4

male SD rats [3] = experiment: Quantification of rat CS-MPs in CSF by Annexin V flow cytometry after intracerebroventricular injection; assay type: in vivo; conditions: LPS 50 μg/animal intracerebroventricular vs saline; CSF from cisterna magna after 24 hours; FIG. 3A
Description: (§5) Two groups of male SD rats (n=8 for each group) were intracerebroventricularly injected with either vehicle (Saline; NaCl 0.9%) or a test substance (Lipopolysaccharides; LPS). After 24 hours, CSF was collected directly in the cisterna magna and blood was obtained by retro-orbital puncture from each animal. CS-MPs and plasma MPs populations were prepared as described in the Materials & Methods of Example 1 and the concentrations of CS-MPs (A) and Plasma MPs (B) populations in the samples were quantified for both groups of animals by flow cytometry. Data are expressed as Mean±SEM (*: p<0.05). […] In a control experiment (C), the CSF and blood samples were collected respectively in the cisterna magna and by retro-orbital, puncture from healthy male SD rats (n=8). CS-MPs and Plasma MPs populations were prepared as described in the Materials & Methods section of Example 1 and then quantified by flow cytometry. Data are expressed as Mean±SEM (*: p<0.05). […]
(§6) The quantifications were performed using a FC500 flow cytometer (Beckman-Coulter, France) by incubating for 30 minutes in the dark each samples (30 μl) with 60 ng of His-tagged, Fluorescein-labelled Annexin V in incubation buffer (2.5 mM CaCl2, 140 mM NaCl, 10 mM HEPES pH 7.4). […] Each sample was then analyzed by flow cytometry. […]

male SD rats [4] = experiment: Quantification of rat Plasma MPs by Annexin V flow cytometry after intracerebroventricular injection; assay type: in vivo; conditions: LPS 50 μg/animal intracerebroventricular vs saline; plasma after 24 hours; FIG. 3B
Description: as §5, §6

| Compound | change in Annexin V-positive MPs in cell culture medium (SH-SY5Y cells [1]) | protein content of MPs on two-dimensional gel (SH-SY5Y cells [2]) | induction of IL1beta gene expression (IL1beta) | induction of TNFalpha gene expression (TNFalpha) | induction of CS-MP levels (male SD rats [3]) | change of Plasma MPs (male SD rats [4]) |
| --- | --- | --- | --- | --- | --- | --- |
| CN[C@@H]1C[C@H]2O[C@@](C)([C@@H]1OC)n1c3ccccc3c3c4c(c5c6ccccc6n2c5c31)C(=O)NC4 [Staurosporine] | significant and dose-dependent increase | evident enrichment in proteins | – | – | – | – |
| Lipopolysaccharides [LPS] | – | – | 40 fold | 6 fold | 3 fold | without a simultaneous and significant increase |
